{"source": "patent US6162925A", "about": "“Antibiotic for methicillin resistant bacteria” (Research Corporation Tech., Inc., priority 1999, dated 2000)", "key": {"[1]": {"test_system": "Pseudomonas Aeruginosa ATCC 27853", "assay": "MIC, broth microdilution (NCCLS), P. aeruginosa ATCC 27853", "format": "cell-based", "conditions": "ATCC27853, P. aeruginosa ATCC 27853, reference strain, 35° C., 20 h, read-out: Minimal Inhibitory Concentration (MIC)", "experimental": "(§1) Test compounds were assayed against Staphylococcus aureus FDA 209P by the 10 fold agar disc diffusion assay on BHI-plates at pH=7 and pH=9 in accordance with the procedure from the National Committee for Clinical Laboratory Standards 1989. Susceptibility testing. A panel of 16 bacteria was used to evaluate the antimicrobial activity of the compounds (Table 2). The MIC of each antimicrobial agent was determined using a microdilution method according to NCCLS standards^1. Serial twofold dilutions of antibiotics were prepared in Mueller-Hinton broth (Difco Laboratories, Detroit, Mich.). Bacteria were grown to early log phase at 35° C. (1 hours) in Mueller-Hinton broth and cultures were diluted to achieve a final inoculum of 5×10^5 CFU per ml. Microtiter plates were incubated at 35° C. for 20 h and then were read using a Thermomax microplate reader (Molecular Devices, Sunnyvale, Calif.) and a microtiter plate reading mirror. The MIC was defined as the lowest concentration of antibiotic which inhibited the development of visible growth at the end of the incubation period. The standard reference strains were Staphyloccocus aureus ATCC […], Enterococcus faecalis ATCC 29212, E. faecium ATCC 35667, Escherichia coli ATCC 25922, and Pseudomonas aeruginosa ATCC 27853. Imipenem and vancomycin were used as antibiotic controls and values for reference strains were in accordance with the NCCLS."}, "[2]": {"test_system": "Enterococcus faecium ATCC 35667", "assay": "MIC, broth microdilution (NCCLS), E. faecium ATCC 35667", "format": "cell-based", "conditions": "ATCC35667, E. faecium ATCC 35667, reference strain, 35° C., 20 h, read-out: Minimal Inhibitory Concentration (MIC)", "experimental": "as §1\n(§2) Enterococcus ATCC Reference strain"}, "[3]": {"test_system": "Staphylococcus aureus sa201", "assay": "MIC, broth microdilution (NCCLS), S. aureus sa201", "format": "cell-based", "conditions": "S. aureus sa201, clinical isolate Spain, methicillin resistant, β-lactamase positive, 35° C., 20 h, read-out: Minimal Inhibitory Concentration (MIC)", "experimental": "as §1\nStaphylococcus Clinical isolate,\naureus sa201 Spain resistant, β-"}, "[4]": {"test_system": "Staphylococcus aureus ATCC 33593", "assay": "MIC, broth microdilution (NCCLS), S. aureus ATCC 33593", "format": "cell-based", "conditions": "ATCC33593, S. aureus ATCC 33593, methicillin resistant, β-lactamase positive, 35° C., 20 h, read-out: Minimal Inhibitory Concentration (MIC)", "experimental": "as §1\nStaphylococcus ATCC Methicillin\naureus ATCC 33593 resistant, β-"}, "[5]": {"test_system": "Staphylococcus aureus sa ATCC 13709", "assay": "MIC, broth microdilution (NCCLS), S. aureus sa ATCC 13709", "format": "cell-based", "conditions": "ATCC13709, S. aureus sa ATCC 13709, Smith strain, 35° C., 20 h, read-out: Minimal Inhibitory Concentration (MIC)", "experimental": "as §1"}, "[6]": {"test_system": "Staphylococcus aureus COL8A", "assay": "MIC, broth microdilution (NCCLS), S. aureus COL8A", "format": "cell-based", "conditions": "20 h, read-out: Minimal Inhibitory Concentration (MIC)", "experimental": "as §1\n(§3) Staphylococcus Methicillin\naureus COL8A susceptible, […]"}, "[7]": {"test_system": "Staphylococcus haemolyticus UA281", "assay": "MIC, broth microdilution (NCCLS), S. haemolyticus UA281", "format": "cell-based", "conditions": "S. haemolyticus UA281, methicillin resistant, 35° C., 20 h, read-out: Minimal Inhibitory Concentration (MIC)", "experimental": "as §1, §3\nhaemolyticus UA281 resistant"}, "[8]": {"test_system": "Staphylococcus aureus ATCC 29213", "assay": "MIC, broth microdilution (NCCLS), S. aureus ATCC 29213", "format": "cell-based", "conditions": "ATCC29213, S. aureus ATCC 29213, reference strain, 35° C., 20 h, read-out: Minimal Inhibitory Concentration (MIC)", "experimental": "as §1\nStaphylococcus ATCC Reference strain"}, "[9]": {"test_system": "Escherichia coli ATCC 25922", "assay": "MIC, broth microdilution (NCCLS), E. coli ATCC 25922", "format": "cell-based", "conditions": "ATCC25922, E. coli ATCC 25922, reference strain, 35° C., 20 h, read-out: Minimal Inhibitory Concentration (MIC)", "experimental": "as §1"}, "[10]": {"test_system": "Enterococcus faecium BM4147", "assay": "MIC, broth microdilution (NCCLS), E. faecium BM4147", "format": "cell-based", "conditions": "E. faecium BM4147, vancomycin resistant, vanA, 35° C., 20 h, read-out: Minimal Inhibitory Concentration (MIC)", "experimental": "as §1\n(§4) Enterococcus Vancomycin\nfaecium BM4147 resistant, vanA"}, "[11]": {"test_system": "Staphylococcus aureus PC1", "assay": "MIC, broth microdilution (NCCLS), S. aureus PC1", "format": "cell-based", "conditions": "S. aureus PC1, Type A βlactamase hyperproducer, 35° C., 20 h, read-out: Minimal Inhibitory Concentration (MIC)", "experimental": "as §1\nStaphylococcus Type A βlactamase\naureus PC1 hyperproducer"}, "Staphylococcus aureus 76": {"test_system": "Staphylococcus aureus 76", "assay": "MIC, broth microdilution (NCCLS), S. aureus 76", "format": "cell-based", "conditions": "Staphylococcus aureus; S. aureus 76, methicillin resistant, β-lactamase positive; 35° C., 20 h; read-out: Minimal Inhibitory Concentration (MIC)", "experimental": "as §1, §3"}, "[12]": {"test_system": "Enterococcus faecalis ATCC 29212", "assay": "MIC, broth microdilution (NCCLS), E. faecalis ATCC 29212", "format": "cell-based", "conditions": "ATCC29212, E. faecalis ATCC 29212, reference strain, 35° C., 20 h, read-out: Minimal Inhibitory Concentration (MIC)", "experimental": "as §1, §2"}, "[13]": {"test_system": "Enterococcus faecalis V583", "assay": "MIC, broth microdilution (NCCLS), E. faecalis V583", "format": "cell-based", "conditions": "E. faecalis V583, vancomycin resistant, vanB, 35° C., 20 h, read-out: Minimal Inhibitory Concentration (MIC)", "experimental": "as §1, §4\nfaecalis V583 resistant, vanB"}, "[14]": {"test_system": "Enterococcus faecium efm040", "assay": "MIC, broth microdilution (NCCLS), E. faecium efm040", "format": "cell-based", "conditions": "E. faecium efm040, clinical isolate U.S.A., ampicillin resistant, 35° C., 20 h, read-out: Minimal Inhibitory Concentration (MIC)", "experimental": "as §1\nEnterococcus Clinical isolate,\nfaecium efm040 U.S.A. resistant"}, "[15]": {"test_system": "Staphylococcus aureus COL", "assay": "MIC, broth microdilution (NCCLS), S. aureus COL", "format": "cell-based", "conditions": "S. aureus COL, methicillin resistant, β-lactamase negative, 35° C., 20 h, read-out: Minimal Inhibitory Concentration (MIC)", "experimental": "as §1, §3\naureus COL resistant, β-"}, "[16]": {"conditions": "basic aqueous solutions; hydrolytic opening of six-membered ring; cited from earlier work"}}, "data": [{"smiles": "COC(=O)NC1=NC(=O)C(N(C)C(=O)C[C@@H](N)CCCNC(=N)N)CN1", "note": "(stereo partly drawn) [Compound 73c, 3S,5'S/R-3-amino-6-[(aminoiminomethyl)amino]-N-(2-methoxycarbonylamino-1,4,5,6-tetrahydro-4-oxo-5-pyrimidinyl)-N-methyl-hexanamide]", "values": [{"measurement": "MIC", "setting": "[1]", "value": "> 256", "unit": "µg/mL"}, {"measurement": "MIC", "setting": "[2]", "value": 128, "unit": "µg/mL"}, {"measurement": "MIC", "setting": "[3]", "value": 64, "unit": "µg/mL"}, {"measurement": "MIC", "setting": "[4]", "value": 64, "unit": "µg/mL"}, {"measurement": "MIC", "setting": "[5]", "value": 32, "unit": "µg/mL"}, {"measurement": "MIC", "setting": "[6]", "value": 64, "unit": "µg/mL"}, {"measurement": "MIC", "setting": "[7]", "value": 256, "unit": "µg/mL"}, {"measurement": "MIC", "setting": "[8]", "value": 64, "unit": "µg/mL"}, {"measurement": "MIC", "setting": "[9]", "value": "> 256", "unit": "µg/mL"}, {"measurement": "MIC", "setting": "[10]", "value": 64, "unit": "µg/mL"}, {"measurement": "MIC", "setting": "[11]", "value": 32, "unit": "µg/mL"}, {"measurement": "MIC", "setting": "Staphylococcus aureus 76", "value": 64, "unit": "µg/mL"}, {"measurement": "MIC", "setting": "[12]", "value": 64, "unit": "µg/mL"}, {"measurement": "MIC", "setting": "[13]", "value": 64, "unit": "µg/mL"}, {"measurement": "MIC", "setting": "[14]", "value": "> 256", "unit": "µg/mL"}, {"measurement": "MIC", "setting": "[15]", "value": 64, "unit": "µg/mL"}]}, {"smiles": "C[C@@H](O)[C@H]1C(=O)N2C(C(=O)O)=C(SCCN=CN)C[C@H]12", "note": "[Imipenem]", "values": [{"measurement": "MIC", "setting": "[1]", "value": 1, "unit": "µg/mL"}, {"measurement": "MIC", "setting": "[2]", "value": 4, "unit": "µg/mL"}, {"measurement": "MIC", "setting": "[3]", "value": 64, "unit": "µg/mL"}, {"measurement": "MIC", "setting": "[4]", "value": 8, "unit": "µg/mL"}, {"measurement": "MIC", "setting": "[5]", "value": "≤ 0.25", "unit": "µg/mL"}, {"measurement": "MIC", "setting": "[6]", "value": "≤ 0.25", "unit": "µg/mL"}, {"measurement": "MIC", "setting": "[7]", "value": 64, "unit": "µg/mL"}, {"measurement": "MIC", "setting": "[8]", "value": "≤ 0.25", "unit": "µg/mL"}, {"measurement": "MIC", "setting": "[9]", "value": "≤ 0.25", "unit": "µg/mL"}, {"measurement": "MIC", "setting": "[10]", "value": 8, "unit": "µg/mL"}, {"measurement": "MIC", "setting": "[11]", "value": "≤ 0.25", "unit": "µg/mL"}, {"measurement": "MIC", "setting": "Staphylococcus aureus 76", "value": 8, "unit": "µg/mL"}, {"measurement": "MIC", "setting": "[12]", "value": 0.5, "unit": "µg/mL"}, {"measurement": "MIC", "setting": "[13]", "value": 0.5, "unit": "µg/mL"}, {"measurement": "MIC", "setting": "[14]", "value": "> 128", "unit": "µg/mL"}, {"measurement": "MIC", "setting": "[15]", "value": 32, "unit": "µg/mL"}]}, {"smiles": "CC(=O)NC1=NC(=O)C(N(C)C(=O)C[C@@H](N)CCCNC(=N)N)CN1", "note": "(stereo partly drawn) [Compound 73a, 3S,5'S/R-3-amino-6-[(aminoiminomethyl)amino]-N-(2-acetylamino-1,4,5,6-tetrahydro-4-oxo-5-pyrimidinyl)-N-methyl-hexanamide]", "values": [{"measurement": "MIC", "setting": "[1]", "value": 256, "unit": "µg/mL"}, {"measurement": "MIC", "setting": "[2]", "value": 64, "unit": "µg/mL"}, {"measurement": "MIC", "setting": "[3]", "value": 16, "unit": "µg/mL"}, {"measurement": "MIC", "setting": "[4]", "value": 8, "unit": "µg/mL"}, {"measurement": "MIC", "setting": "[5]", "value": 16, "unit": "µg/mL"}, {"measurement": "MIC", "setting": "[6]", "value": 16, "unit": "µg/mL"}, {"measurement": "MIC", "setting": "[7]", "value": 128, "unit": "µg/mL"}, {"measurement": "MIC", "setting": "[8]", "value": 16, "unit": "µg/mL"}, {"measurement": "MIC", "setting": "[9]", "value": 128, "unit": "µg/mL"}, {"measurement": "MIC", "setting": "[10]", "value": 128, "unit": "µg/mL"}, {"measurement": "MIC", "setting": "[11]", "value": 8, "unit": "µg/mL"}, {"measurement": "MIC", "setting": "Staphylococcus aureus 76", "value": 16, "unit": "µg/mL"}, {"measurement": "MIC", "setting": "[12]", "value": 32, "unit": "µg/mL"}, {"measurement": "MIC", "setting": "[14]", "value": 256, "unit": "µg/mL"}, {"measurement": "MIC", "setting": "[15]", "value": 16, "unit": "µg/mL"}]}, {"smiles": "CN(C(=O)C[C@@H](N)CCCNC(=N)N)[C@@H]1CNC(NC(N)=O)=NC1=O", "note": "[TAN-1057B]", "values": [{"measurement": "loss of antibacterial activity in basic aqueous solutions", "setting": "[16]", "value": "gradually lost their antibacterial activities in basic aqueous solutions"}]}]}
